Reference: ChEMBL document CHEMBL2380196, “New anticancer active and selective phenylene-bisbenzothiazoles: synthesis, antiproliferative evaluation and DNA binding” (Eur J Med Chem, 2013)
Active and inactive are the calls of the source. The rule behind the calls is not given here.

Assays:
DNA [1] = assay: Binding affinity to calf thymus DNA at 50 uM by Circular dichroism spectra analysis; assay type: nucleic-acid assay; conditions: Bos taurus
DNA [2] = assay: Binding affinity to calf thymus DNA assessed as change in melting temperature at 0.5 drug/DNA ratio by spectrophotometer analysis; assay type: nucleic-acid assay; conditions: Bos taurus
[3] = biological target: T1, DNA topoisomerase 1 (Homo sapiens) (UniProt P11387); assay: Inhibition of human topoisomerase 1-mediated supercoiled pUC19 DNA relaxation assessed as formation of open circle form after 45 mins using ethidium bromide staining by agarose gel electrophoresis
T1 sequence (whole entry): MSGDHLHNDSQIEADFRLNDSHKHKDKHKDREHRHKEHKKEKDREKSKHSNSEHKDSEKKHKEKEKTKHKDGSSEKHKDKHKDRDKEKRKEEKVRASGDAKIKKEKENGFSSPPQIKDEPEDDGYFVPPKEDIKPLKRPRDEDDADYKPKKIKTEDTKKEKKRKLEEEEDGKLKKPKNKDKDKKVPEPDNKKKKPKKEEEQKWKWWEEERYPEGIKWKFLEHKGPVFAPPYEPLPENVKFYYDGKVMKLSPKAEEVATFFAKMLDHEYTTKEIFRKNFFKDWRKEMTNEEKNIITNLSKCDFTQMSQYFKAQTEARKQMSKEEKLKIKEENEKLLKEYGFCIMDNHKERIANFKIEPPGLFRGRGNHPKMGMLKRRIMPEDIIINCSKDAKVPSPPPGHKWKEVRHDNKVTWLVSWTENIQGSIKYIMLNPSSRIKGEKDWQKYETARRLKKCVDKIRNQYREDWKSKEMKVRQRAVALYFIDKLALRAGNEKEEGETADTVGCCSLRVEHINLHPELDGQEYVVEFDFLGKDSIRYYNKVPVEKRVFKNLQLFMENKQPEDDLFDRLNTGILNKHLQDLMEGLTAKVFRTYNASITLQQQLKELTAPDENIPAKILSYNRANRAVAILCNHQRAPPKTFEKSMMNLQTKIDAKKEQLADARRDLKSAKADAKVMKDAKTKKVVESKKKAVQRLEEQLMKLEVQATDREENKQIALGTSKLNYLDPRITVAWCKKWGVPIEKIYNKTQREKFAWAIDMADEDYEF

SW-620 = assay: Antiproliferative activity against human SW620 cells after 72 hrs by MTT assay; assay type: functional, cell-based; conditions: SW-620, 72 h; for CC50: read-out: LC50 (the source's name)
[4] = biological target: DNA topoisomerase 2-alpha (Homo sapiens) (UniProt P11388); assay: Inhibition of human topoisomerase 2-mediated supercoiled pUC19 DNA relaxation assessed as formation of open circle form after 45 mins using ethidium bromide staining by agarose gel electrophoresis
Chain of DNA topoisomerase 2-alpha (Homo sapiens) (P11388 whole entry): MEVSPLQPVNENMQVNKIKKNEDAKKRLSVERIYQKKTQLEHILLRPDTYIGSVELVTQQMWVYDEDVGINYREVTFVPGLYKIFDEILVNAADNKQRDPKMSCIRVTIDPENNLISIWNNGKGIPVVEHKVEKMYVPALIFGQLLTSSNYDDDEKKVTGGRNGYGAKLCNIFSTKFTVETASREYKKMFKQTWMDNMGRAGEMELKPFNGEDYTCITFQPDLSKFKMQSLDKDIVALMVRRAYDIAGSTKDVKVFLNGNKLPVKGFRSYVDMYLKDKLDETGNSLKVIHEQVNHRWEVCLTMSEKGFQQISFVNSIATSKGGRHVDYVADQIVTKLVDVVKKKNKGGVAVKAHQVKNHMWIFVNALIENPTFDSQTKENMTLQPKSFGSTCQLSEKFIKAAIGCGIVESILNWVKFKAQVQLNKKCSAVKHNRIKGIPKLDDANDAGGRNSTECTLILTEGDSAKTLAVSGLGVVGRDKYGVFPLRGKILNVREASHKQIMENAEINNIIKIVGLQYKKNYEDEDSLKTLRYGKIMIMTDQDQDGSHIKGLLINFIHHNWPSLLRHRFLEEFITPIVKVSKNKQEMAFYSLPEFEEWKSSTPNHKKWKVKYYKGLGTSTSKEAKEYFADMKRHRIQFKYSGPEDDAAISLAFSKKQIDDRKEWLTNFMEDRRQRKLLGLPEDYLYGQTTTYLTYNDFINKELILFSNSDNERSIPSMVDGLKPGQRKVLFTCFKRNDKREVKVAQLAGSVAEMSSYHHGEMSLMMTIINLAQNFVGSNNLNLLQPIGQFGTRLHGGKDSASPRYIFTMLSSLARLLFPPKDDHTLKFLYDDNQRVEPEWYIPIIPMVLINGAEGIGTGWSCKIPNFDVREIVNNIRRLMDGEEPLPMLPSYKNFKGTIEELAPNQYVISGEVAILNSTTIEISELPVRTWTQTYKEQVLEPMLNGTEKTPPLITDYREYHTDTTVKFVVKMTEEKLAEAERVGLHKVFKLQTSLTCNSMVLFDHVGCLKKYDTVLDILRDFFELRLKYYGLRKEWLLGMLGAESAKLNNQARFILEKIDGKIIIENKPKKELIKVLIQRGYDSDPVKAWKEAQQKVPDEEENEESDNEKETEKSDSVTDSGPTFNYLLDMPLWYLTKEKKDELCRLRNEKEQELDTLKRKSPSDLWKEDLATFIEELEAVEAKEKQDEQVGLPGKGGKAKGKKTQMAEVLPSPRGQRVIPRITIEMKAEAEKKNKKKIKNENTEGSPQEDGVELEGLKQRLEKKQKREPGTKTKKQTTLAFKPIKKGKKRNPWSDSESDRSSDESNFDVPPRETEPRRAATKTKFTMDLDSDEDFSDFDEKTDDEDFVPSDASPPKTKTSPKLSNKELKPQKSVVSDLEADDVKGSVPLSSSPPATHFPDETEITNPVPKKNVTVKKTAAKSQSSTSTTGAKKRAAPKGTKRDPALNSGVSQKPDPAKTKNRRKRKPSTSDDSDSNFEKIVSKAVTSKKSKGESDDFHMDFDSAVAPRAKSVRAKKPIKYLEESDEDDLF

MCF7 = assay: Antiproliferative activity against human MCF7 cells after 72 hrs by MTT assay; assay type: functional, cell-based; conditions: MCF7, 72 h; for CC50: read-out: LC50 (the source's name)
MIA PaCa-2 = assay: Antiproliferative activity against human MIAPaCa2 cells after 72 hrs by MTT assay; assay type: functional, cell-based; conditions: MIA PaCa-2, 72 h; for CC50: read-out: LC50 (the source's name)
DNA [5] = assay: Binding affinity to calf thymus DNA assessed as hypochromic effect at 20 uM by UV/Vis spectra analysis; assay type: nucleic-acid assay; conditions: Bos taurus
SK-BR-3 = assay: Antiproliferative activity against human SKBR3 cells after 72 hrs by MTT assay; assay type: functional, cell-based; conditions: SK-BR-3, 72 h; for CC50: read-out: LC50 (the source's name)
WI-38 = assay: (§1) Antiproliferative activity against human WI38 cells after 72 hrs by MTT assay; assay type: cell-based; conditions: Homo sapiens, WI-38, 72 h
[6] = as §1; assay type: cell-based, WI-38; conditions: human, WI-38 cells; read-out: LC50
HeLa = assay: Antiproliferative activity against human HeLa cells after 72 hrs by MTT assay; assay type: functional, cell-based; conditions: for CC50: read-out: LC50 (the source's name)
DNA [7] = assay: Binding affinity to calf thymus DNA assessed as change in melting temperature at 0.25 drug/DNA ratio by spectrophotometer analysis; assay type: nucleic-acid assay; conditions: Bos taurus
[8] = biological target: T1, DNA topoisomerase 1 (Homo sapiens); assay: Inhibition of human topoisomerase 1-mediated supercoiled pUC19 DNA relaxation at 1 to 50 uM after 45 mins by agarose gel electrophoresis

Compound	Activity (DNA [1])	ΔTm (DNA [2]) [°C]	inhibition [3]	IC50 (SW-620) [µM]	CC50 (SW-620) [µM]	inhibition [4]	IC50 (MCF7) [µM]	CC50 (MCF7) [µM]	IC50 (MIA PaCa-2) [µM]	CC50 (MIA PaCa-2) [µM]	Activity (DNA [5])	IC50 (SK-BR-3) [µM]	CC50 (SK-BR-3) [µM]	IC50 (WI-38) [µM]	CC50 at 72 h [6] [µM]	IC50 (HeLa) [µM]	CC50 (HeLa) [µM]	ΔTm (DNA [7]) [°C]	inhibition [8]
N=C(N)c1ccc2nc(-c3ccc(-c4nc5ccc(C(=N)N)cc5s4)cc3)sc2c1	inactive	3	Active	> 100	> 100	Active	9.01	> 100	20.4	> 100	Active	8.55	> 100	41.9	> 100	9.6	> 100	–	–
N=C(N)c1ccc2nc(-c3cccc(-c4nc5ccc(C(=N)N)cc5s4)c3)sc2c1	Active	–	Active	6.01	> 100	Active	5.34	> 100	> 100	> 100	Active	83.2	> 100	0.99	65.4	> 100	> 100	13.7	–
N=C(N)c1ccc2nc(-c3ccccc3-c3nc4ccc(C(=N)N)cc4s3)sc2c1	Active	9.8	–	> 100	> 100	–	30.9	> 100	44.8	> 100	Active	86.6	> 100	86.4	> 100	63.6	> 100	–	–
c1ccc(-c2nc3ccc(C4=NCCN4)cc3s2)c(-c2nc3ccc(C4=NCCN4)cc3s2)c1	Active	16.8	–	24.7	81.3	–	10.1	71.4	14.6	72.9	Active	1.86	67.9	8.99	74.3	26.8	76.4	–	Active
